Test results as given in ChEMBL document CHEMBL3769339, “Synthesis of indole-derived allocolchicine congeners exhibiting pronounced anti-proliferative and apoptosis-inducing properties” (Medchemcomm, 2015).
Active and inactive are the calls of the source. The calls are words filed in the database; no cut-off is given here.

Tests used:
[1] = Inhibition of sheep tubulin polymerization by fluorescence based assay; design: species or system Ovis aries
[2] = system: BJAB; experiment: Antiproliferative activity against human BJAB cells at AC50 after 24 hrs by CASY cell counting method; assay type: functional
[3] = system: BJAB; experiment: Induction of apoptosis in human BJAB cells assessed as DNA fragmentation after 72 hrs by flow cytometry; assay type: functional, cell-based
[4] = system: BJAB; experiment: Antiproliferative activity against human BJAB cells after 24 hrs by CASY cell counting method; assay type: functional, cell-based
[5] = system: BJAB; experiment: Cytotoxicity against human BJAB cells assessed as necrosis at AC50 after 72 hrs by LDH release assay; assay type: cell-based
[6] = system: BJAB; experiment: Antiproliferative activity against human BJAB cells assessed as cell count at 30 uM after 24 hrs by CASY cell counting method (reference value: 2.02 10^5/ml); assay type: functional
[7] = organism: Ovis aries; experiment: Inhibition of sheep tubulin polymerization at 0.75 to 7.5 uM by fluorescence based assay
[8] = system: BJAB; experiment: Antiproliferative activity against human BJAB cells assessed as cell count at 100 uM after 24 hrs by CASY cell counting method (reference value: 2.02 10^5/ml); assay type: functional
[9] = system: BJAB; experiment: Antiproliferative activity against human BJAB cells assessed as cell count at 10 uM after 24 hrs by CASY cell counting method (reference value: 2.02 10^5/ml); assay type: functional
[10] = system: BJAB; experiment: Antiproliferative activity against human BJAB cells assessed as cell count at 0.1 uM after 24 hrs by CASY cell counting method (reference value: 2.02 10^5/ml); assay type: functional
[11] = system: BJAB; experiment: Antiproliferative activity against human BJAB cells assessed as cell count at 0.005 uM after 24 hrs by CASY cell counting method (reference value: 2.02 10^5/ml); assay type: functional
[12] = system: BJAB; experiment: Antiproliferative activity against human BJAB cells assessed as cell count at 0.01 uM after 24 hrs by CASY cell counting method (reference value: 2.02 10^5/ml); assay type: functional
[13] = system: BJAB; experiment: Antiproliferative activity against human BJAB cells assessed as cell count at 50 uM after 24 hrs by CASY cell counting method (reference value: 2.02 10^5/ml); assay type: functional
[14] = system: BJAB; experiment: Antiproliferative activity against human BJAB cells assessed as cell count at 0.001 uM after 24 hrs by CASY cell counting method (reference value: 2.02 10^5/ml); assay type: functional
[15] = system: BJAB; experiment: Cytotoxicity against human BJAB cells assessed as necrosis at 5 uM after 1 hr by LDH release assay; assay type: cell-based
[16] = system: BJAB; experiment: Antiproliferative activity against human BJAB cells assessed as cell count at 0.5 uM after 24 hrs by CASY cell counting method (reference value: 2.02 10^5/ml); assay type: functional
[17] = system: BJAB; experiment: Antiproliferative activity against human BJAB cells assessed as cell count at 5 uM after 24 hrs by CASY cell counting method (reference value: 2.02 10^5/ml); assay type: functional
[18] = system: BJAB; experiment: Antiproliferative activity against human BJAB cells assessed as cell count at 1 uM after 24 hrs by CASY cell counting method (reference value: 2.02 10^5/ml); assay type: functional
[19] = system: BJAB; experiment: Antiproliferative activity against human BJAB cells assessed as cell count at 0.05 uM after 24 hrs by CASY cell counting method (reference value: 2.02 10^5/ml); assay type: functional

`COc1ccc(/C=C\c2cc(OC)c(OC)c(OC)c2)cc1O` [COMBRETASTATIN A4] gave an IC50 [1] of 90 nM.
For `COc1cc2c(c(OC)c1OC)-c1cc3c(ccn3C)cc1C(=O)CC2`, the “inhibition (INH)” value [2] was 98%, the AC50 [3] was 50 nM and the Activity [3] was “Dose-dependent effect”. For the same compound, the Activity [4] was “Dose-dependent effect”, the IC50 [4] was 10 nM and the Activity [5] was 4%.
For `COc1cc2c(c(OC)c1OC)-c1cc3c(ccn3C)cc1C(N=[N+]=[N-])CC2` (racemic), the “inhibition (INH)” value [2] was 30%, the AC50 [3] was greater than 100000 nM and the Activity [3] was “Dose-dependent effect”. The Activity [4] was “Dose-dependent effect”, the IC50 [4] was 50000 nM and the Activity [5] was 1%.
For `COc1cc2c(c(OC)c1OC)-c1cc3c(ccn3C)cc1C(NC(C)=O)CC2` (racemic), the AC50 [3] was greater than 100000 nM, the Activity [3] was “Dose-dependent effect” and the Activity [4] was “Dose-dependent effect”. The IC50 [4] was greater than 100000 nM.
For `COc1cc2c(c(OC)c1OC)-c1ccc(OC)c(=O)cc1[C@@H](NC(C)=O)CC2` [COLCHICINE], the AC50 [3] was 30 nM, the Activity [3] was “Dose-dependent effect” and the Activity [4] was “Dose-dependent effect”. The IC50 [4] was 20 nM and the IC50 [1] was 375 nM.
With `COc1cc2c(c(OC)c1OC)-c1cc3c(ccn3C)cc1C(N)CC2` (racemic) the “inhibition (INH)” value [2] was 90%, the AC50 [3] was 5000 nM and the Activity [3] was “Dose-dependent effect”. The Activity [4] was “Dose-dependent effect”, the IC50 [4] was 500 nM and the Activity [5] was 29%.
With `COc1cc2c(c(OC)c1OC)-c1cc3c(ccn3C)cc1C(OC(C)=O)CC2` (racemic) the Activity [6] was 1.12 ×10⁵ /ml, the “inhibition (INH)” value [2] was 89% and the AC50 [3] was 50 nM. The Activity [3] was “Dose-dependent effect”, the inhibition [7] was “Active” and the Activity [8] was 0.97 ×10⁵ /ml. It also gave an Activity [9] of 1.13 ×10⁵ /ml, an Activity [10] of 1.17 ×10⁵ /ml and an Activity [11] of 1.87 ×10⁵ /ml. For the same compound, the Activity [4] was “Dose-dependent effect”, the IC50 [4] was 10 nM and the Activity [12] was 1.9 ×10⁵ /ml. For the same compound, the Activity [5] was 0%, the Activity [13] was 1.02 ×10⁵ /ml and the IC50 [1] was 125 nM. The Activity [14] was 2 ×10⁵ /ml, the Activity [15] was “Non-toxic” and the Activity [16] was 1.21 ×10⁵ /ml. For the same compound, the Activity [17] was 1.1 ×10⁵ /ml, the Activity [18] was 1.09 ×10⁵ /ml and the Activity [19] was 1.11 ×10⁵ /ml.
`COc1cc2c(c(OC)c1OC)-c1ccc3c(ccn3C)c1C(O)CC2` (racemic) showed an IC50 [1] of 228 nM.
With `COc1cc2c(c(OC)c1OC)-c1cc3c(ccn3C)cc1C(O)CC2` (racemic) the “inhibition (INH)” value [2] was 52%, the AC50 [3] was 1 nM and the Activity [3] was “Dose-dependent effect”. For the same compound, the Activity [4] was “Dose-dependent effect”, the IC50 [4] was 1 nM and the Activity [5] was 7%.
Compound `COc1cc2c(c(OC)c1OC)-c1cc3ccn(C)c3cc1C(O)CC2` (racemic) has an IC50 [1] of 264 nM.
